Laboratory results: PubChem BioAssay AID1591 (Sanford-Burnham Center for Chemical Genomics, 2009)

Tested on: human plasma stability, LC/MS/MS, 180 min
Assay: human plasma degradation, percent remaining – biochemical, LC/MS/MS, 180 min, dry powder, ADME assay, late-stage follow-up (AID 1591)
Conditions: at 1 µM; hits give low values

Compound: C=CCn1c(SCC(=O)c2ccc(O)c(O)c2)nnc1-c1ccccc1OC
- percent remaining: 82.6%
